The nature of series [1]: Cytotoxicity against mouse RAW264.7 cells incubated for 48 hrs by MTT assay. The series is classed as toxicity, cell-based. On the technique in general: Tetrazolium dyes change colour on reduction, which living cells bring about.
Series [2] concerns Trypanosoma cruzi. Put plainly: Antitrypanosomal activity against Trypanosoma cruzi Y trypomastigotes infected in African green monkey Vero cells assessed as parasite growth inhibition incubated for 24 hrs by hemocytometry. The series is classed as functional, organism-based.
A short description of series [3]: Selectivity index, ratio of CC50 for mouse RAW264.7 cells to IC50 for Trypanosoma cruzi Y trypomastigotes infected in African green monkey Vero cells. The series is classed as toxicity. Particulars: read-out: Ratio CC50/IC50.
The subject of series [4] is Trypanosoma cruzi. In words: Antitrypanosomal activity against Trypanosoma cruzi Tulahuen amastigotes infected in mouse L929 cells assessed as parasite growth inhibition measured after 7 days by CPRG/Nonidet based assay. Particulars: L929, 168 h. The series is classed as functional, organism-based.
Series [5] in a line: Selectivity index, ratio of CC50 for mouse RAW264.7 cells to IC50 for Trypanosoma cruzi Tulahuen amastigotes infected in mouse L929 cells. The series is classed as toxicity, cell-based. Particulars: read-out: Ratio CC50/IC50.
In series [6] the test system is Trypanosoma cruzi. Put plainly: Induction of morphological changes in Trypanosoma cruzi trypomastigotes assessed as appearance of contorted body at IC50 incubated for 24 hrs by SEM analysis. The series is classed as functional, organism-based.
For series [7], the system named is Trypanosoma cruzi. Put plainly: Induction of morphological changes in Trypanosoma cruzi trypomastigotes assessed as appearance of rounded body at 2 times IC50 incubated for 24 hrs by SEM analysis. The series is classed as functional, organism-based.
The subject of series [8] is Trypanosoma cruzi. Put plainly: Induction of morphological changes in Trypanosoma cruzi trypomastigotes membrane assessed as appearance of membrane rupture at 2 times IC50 incubated for 24 hrs by SEM analysis.
Series [9] deals with Trypanosoma cruzi. In words: Induction of morphological changes in Trypanosoma cruzi trypomastigotes assessed as appearance of shortened flagellum at IC50 incubated for 24 hrs by SEM analysis. The series is classed as functional, organism-based.
Series [10] deals with Trypanosoma cruzi. In words: Induction of morphological changes in Trypanosoma cruzi trypomastigotes assessed as appearance of thinned flagellum at 2 times IC50 incubated for 24 hrs by SEM analysis. The series is classed as functional, organism-based.
For series [11], the system named is Trypanosoma cruzi. In words: Induction of morphological changes in Trypanosoma cruzi trypomastigotes assessed as appearance of loss of cytoplasmic content at 2 times IC50 incubated for 24 hrs by SEM analysis. The series is classed as functional, organism-based.
The test system of series [12] is Trypanosoma cruzi. Put plainly: Induction of apoptosis in Trypanosoma cruzi trypomastigotes assessed as early apoptotic cells at IC50 incubated for 24 hrs by annexin V-FITC/PI staining based flow cytometry (reference value: 0.10 %). The series is classed as functional.
Series [13] concerns Trypanosoma cruzi. Put plainly: Induction of apoptosis in Trypanosoma cruzi trypomastigotes assessed as late apoptotic cells at IC50 incubated for 24 hrs by annexin V-FITC/PI staining based flow cytometry (reference value: 2.58 %). The series is classed as functional.
Series [14] concerns Trypanosoma cruzi. Put plainly: Induction of apoptosis in Trypanosoma cruzi trypomastigotes assessed as necrotic cells at IC50 incubated for 24 hrs by annexin V-FITC/PI staining based flow cytometry (reference value: 4.05 %). The series is classed as functional. In general terms: In flow cytometry, cells or beads pass a laser one at a time.
Series [15] has as its system Trypanosoma cruzi. In words: Induction of apoptosis in Trypanosoma cruzi trypomastigotes assessed as early apoptotic cells at 2 times IC50 incubated for 24 hrs by annexin V-FITC/PI staining based flow cytometry (reference value: 0.10 %). The series is classed as functional.
Series [16] concerns Trypanosoma cruzi. Put plainly: Induction of apoptosis in Trypanosoma cruzi trypomastigotes assessed as late apoptotic cells at 2 times IC50 incubated for 24 hrs by annexin V-FITC/PI staining based flow cytometry (reference value: 2.58 %). The series is classed as functional.
Series [17] concerns Trypanosoma cruzi. In words: Induction of apoptosis in Trypanosoma cruzi trypomastigotes assessed as necrotic cells at 2 times IC50 incubated for 24 hrs by annexin V-FITC/PI staining based flow cytometry (reference value: 4.05 %). The series is classed as functional.
The subject of series [18] is Splenocyte. Put plainly: Immunomodulatory activity in mouse splenocytes assessed as effect on IFN-gamma level at 10 ug/ml incubated for 24 to 96 hrs by flow cytometry. To be noted: dose 10.0 µg/ml, time 24-96 hrs. The series is classed as functional, cell-based.
The subject of series [19] is Splenocyte. Put plainly: Immunomodulatory activity in mouse splenocytes assessed as reduction in IL-10 level at 10 ug/ml incubated for 24 hrs by flow cytometry. To be noted: dose 10.0 µg/ml. The series is classed as functional, cell-based.
Series [20] has as its system Splenocyte. In words: Immunomodulatory activity in mouse splenocytes assessed as increase in IL-6 level at 10 ug/ml incubated for 24 hrs by flow cytometry. The series is classed as functional, cell-based. To be noted: dose 10.0 µg/ml.
In series [21] the test system is Splenocyte. Put plainly: Immunomodulatory activity in mouse splenocytes assessed as increase in IL-6 level at 10 ug/ml incubated for 48 to 72 hrs by flow cytometry. To be noted: dose 10.0 µg/ml, time 48-72 hrs. The series is classed as functional, cell-based.
For series [22], the system named is Leishmania amazonensis. Put plainly: Antileishmanial activity against Leishmania amazonensis WHOM/00 LTB 0016 promastigotes assessed as parasite growth inhibition incubated for 72 hrs. The series is classed as functional, organism-based. To be noted: WHOM/00 LTB 0016, 72 h.
Series [23] in a line: Selectivity index, ratio of CC50 for mouse RAW264.7 cells to IC50 for Leishmania amazonensis WHOM/00 LTB 0016 promastigotes. To be noted: read-out: Ratio CC50/IC50. The series is classed as toxicity.
Series [24] has as its system Leishmania amazonensis. Put plainly: Antileishmanial activity against Leishmania amazonensis WHOM/00 LTB 0016 amastigotes infected in mouse RAW264.7 cells assessed as parasite growth inhibition incubated for 24 hrs by panoptic staining based assay. The series is classed as functional, organism-based. Particulars: WHOM/00 LTB 0016, RAW264.7, 24 h.
Series [25] is described as follows: Selectivity index, ratio of CC50 for mouse RAW264.7 cells to IC50 for Leishmania amazonensis WHOM/00 LTB 0016 amastigotes infected in mouse RAW264.7 cells. The series is classed as toxicity, cell-based. To be noted: read-out: Ratio CC50/IC50.
Series [26] concerns Trypanosoma cruzi. Put plainly: Induction of morphological changes in Trypanosoma cruzi trypomastigotes assessed as appearance of loss of cytoplasmic content at IC50 incubated for 24 hrs by SEM analysis. The series is classed as functional, organism-based.
Series [27] relates to Splenocyte. Put plainly: Immunomodulatory activity in mouse splenocytes assessed as reduction in IL-6 level at 10 ug/ml incubated for 24 hrs by flow cytometry. The series is classed as functional, cell-based. Particulars: dose 10.0 µg/ml.
Series [28] has as its system Splenocyte. Put plainly: Immunomodulatory activity in mouse splenocytes assessed as reduction in IL-6 level at 10 ug/ml incubated for 96 hrs by flow cytometry. The series is classed as functional, cell-based. To be noted: dose 10.0 µg/ml.
For series [29], the system named is Trypanosoma cruzi. In words: Antitrypanosomal activity against Trypanosoma cruzi Y trypomastigotes assessed as parasite growth inhibition incubated for 24 hrs by Neubauer chamber based analysis. The series is classed as functional, organism-based.
The nature of series [30]: Cytotoxicity in BALB/c mouse splenocytes incubated for 24 hrs by [3H]-thymidine based liquid scintillation counter analysis. The series is classed as toxicity, cell-based, Splenocyte.

Activity calls are given as the source filed them. The calls are words filed in the database; no cut-off is given here.

Consider `CC1(C)S/C(=N/N=C/c2ccccn2)N(c2ccccc2)C1=O`, for which, in [1], the CC50 (commonly the concentration that lowers cell viability or growth by half) at 48 h is 146 µM. For the same compound, the IC50 (commonly the concentration needed to halve the response being measured) turned out to be 0.9 µM in series [2], 0.64 µM in series [4], 42.2 µM in series [22] and 9.58 µM in [24]. Also, the selectivity ratio in series [3] worked out at 162; in series [5], 228; in series [23] it was 3.5; in series [25], 15.2. Besides, the result in series [6], in [7], in series [8], in [9], in series [10] and in [11] was Active. In addition, the result in series [19], in [20] and in series [21] was Active. The Activity in series [12] came out at 0.18%; in series [13], 3.66%; in [14], 21.53%; in series [15], 0.33%; in series [16], 4.4%; in [17] it was 21.27%. In addition, the outcome in [18] was inactive.

For the compound `O=C(Cn1ccnc1[N+](=O)[O-])NCc1ccccc1` [BENZNIDAZOLE], the CC50 at 48 h in series [1] came to 124 µM. In addition, the selectivity ratio in [3] was determined as 8.5; in series [5] it was 19.6. Also, in series [4], the IC50 was 6.3 µM. In addition, the result in series [6], in [26], in [7], in [8] and in series [27] was Active. In addition, the Activity in [12] worked out at 0.88%; in series [13] it was 8.37%; in series [14], 11.69%; in series [15], 1.18%; in series [16], 22.44%; in series [17], 12.44%.

As to `CC(C)C1S/C(=N/N=C/c2ccccn2)N(c2ccccc2)C1=O` (stereo unspecified), the CC50 at 48 h in [1] worked out at 47.4 µM. Moreover, the IC50 in series [2] came to 1 µM; in series [4] it was 0.6 µM; in series [22], 150 µM; in series [24], 16.8 µM. In addition, the selectivity ratio was 46.4 in series [3], 79 in [5], 0.3 in series [23] and 2.82 in series [25]. Besides, the outcome in series [6], in series [7], in series [8], in series [9], in series [10] and in series [11] was Active. The outcome in series [19] and in series [28] was Active. Besides, the Activity is recorded as 0.97% in series [12]; 3.83% in series [13]; 6.38% in series [14]; 0.13% in [15]; 4.02% in series [16]; 30.19% in series [17]. For the same compound, the result in series [18] was inactive.

For `C/C(=N\N=C1/NC(=O)C(c2ccccc2)S1)c1cc(Cl)ccc1Cl` (stereo unspecified), in series [29], the IC50 stood at 0.84 µM. The same compound returned a CC50 at 24 h in [30] of at least 100 µM.

The values are drawn from ChEMBL document CHEMBL5325424, “Structural design, synthesis, and anti-Trypanosomatidae profile of new Pyridyl-thiazolidinones” (Eur J Med Chem, 2023).
